In assay [1] the target is GST-CBP(1081-1197) bromodomain (Homo sapiens (Human), UniProt Q92793). Description: CBP AlphaScreen Assay. To be noted: binding to biotin-H4(1-21) Ac-K5/8/12/16. How it is done: (§1) Specific binding of the CBP or BRD4 bromodomain to the acetylated peptide derived from the H4 histone substrate (tetra acetylated H4(1-21) Ac-K5/8/12/16) was measured in absence or presence of inhibitors. The GST tagged bromodomains of CBP (1081-1197) and BRD4 (49-170) were obtained from BPS Bioscience and binding to the biotinylated H4(1-21) Ac-K5/8/12/16 (AnaSpec. 64989) was assessed via AlphaScreen technology (Perkin Elmer).
Sequence of GST-CBP(1081-1197) bromodomain (Q92793 1081-1197): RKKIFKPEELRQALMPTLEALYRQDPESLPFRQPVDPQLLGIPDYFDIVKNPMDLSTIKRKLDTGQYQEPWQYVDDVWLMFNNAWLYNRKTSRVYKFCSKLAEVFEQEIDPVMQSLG
(§2) 5 nM GST-CBP(1081-1197) and 20 nM biotin-H4(1-21) Ac-K5/8/12/16 (AnaSpec. 64989) were incubated with varying concentrations of CBP inhibitors in 15 μL of buffer containing 50 mM HEPES 7.5, […], 1 mM TCEP, and 0.003% Tween-20. After 30 minutes incubation at room temperature, 15 μL of detection buffer (BPS Bio. 33006) containing 7 μg/mL of Glutathione AlphaLisa acceptor beads (Perkin Elmer AL109) and 14 μg/mL of Streptavidin donor beads (Perkin Elmer 676002) was then added to the previous mixture. The reaction was incubated for an additional 2 hours at room temperature, and the AlphaScreen signal was quantified using the Envision Multilabel plate reader. As negative control, GST-CBP(1081-1197) was incubated with the non-acetylated biotin-H4(1-21) peptide(AnaSpec. 62555) and in presence of 0.25% of final DMSO concentration.
(§3) the binding of 2.5 nM of BRD4(49-170) to 10 nM biotin-H4(1-21) Ac-K5/8/12/16 (AnaSpec. 64989) was assessed following the same procedure described for the CBP assay. The standard dose response curves were fitted by Genedata Screener software using the variable-slope model: Signal=Signalnegative control+(SignalDMSO control−Signalnegative control)/(1+(IC50/Dose)^Hill slope).
(§4) Only Signal and Dose in the equation were treated as know values.
A general note: Alpha assays give light when donor and acceptor beads are brought close together.

For assay [2], the target named is BRD4(49-170) bromodomain (Homo sapiens (Human), UniProt O60885). Nature of the assay: BRD4 AlphaScreen Assay. As to conditions: binding to biotin-H4(1-21) Ac-K5/8/12/16. How it is done: as §1, §2, §3, §4

pIC50: −log10 of the molar value.

In general, pIC50 refers to the negative decadic logarithm of the IC50, by convention in mol/L. A high value points to a small IC50. As to `CC1C(=O)N(C)Cc2c(-c3c(F)ccc4cc(C5CCOCC5)ncc34)nc(C3CCOCC3)n21` (single isomer, unassigned) [Example 34b, 1-(7-Fluoro-3-(tetrahydro-2H-pyran-4-yl)isoquinolin-8-yl)-5,7-dimethyl-3-(tetrahydro-2H-pyran-4-yl)-7,8-dihydroimidazo[1,5-a]pyrazin-6(5H)-one], the pIC50 in assay [1] was 8.10; in assay [2], 5.91.

Regarding `CC1C(=O)N(C)Cc2c(-c3c(F)ccc4nc(-c5cnn(C)c5)c(C(F)F)cc34)nc(C3CCOCC3)n21` (single isomer, unassigned) [Example 36a, 1-(3-(Difluoromethyl)-6-fluoro-2-(1-methyl-1H-pyrazol-4-yl)quinolin-5-yl)-5,7-dimethyl-3-(tetrahydro-2H-pyran-4-yl)-7,8-dihydroimidazo[1,5-a]pyrazin-6(5H)-one], the pIC50 in assay [1] was 8.70; in assay [2], 6.20.

For the compound `CC1C(=O)N(C)Cc2c(-c3c(F)ccc4nc(-c5cnn(C)c5)c(C(F)F)cc34)nc(C3CCOCC3)n21` (single isomer, unassigned) [Example 36b, 1-(3-(Difluoromethyl)-6-fluoro-2-(1-methyl-1H-pyrazol-4-yl)quinolin-5-yl)-5,7-dimethyl-3-(tetrahydro-2H-pyran-4-yl)-7,8-dihydroimidazo[1,5-a]pyrazin-6(5H)-one], the negative logarithm of the IC50 (pIC50) in assay [1] is 6.84; in assay [2], at most 4.60.

As to `Cc1ncc(-c2cc3ccc(F)c(-c4nc(C5CCOCC5)n5c4CN(C)C(=O)C5C)c3cn2)s1` (single isomer, unassigned) [Example 37a, 1-(7-Fluoro-3-(2-methylthiazol-5-yl)isoquinolin-8-yl)-5,7-dimethyl-3-(tetrahydro-2H-pyran-4-yl)-7,8-dihydroimidazo[1,5-a]pyrazin-6(5H)-one], the pIC50 is 9.00 in assay [1] and 6.67 in assay [2].

Take `Cc1ncc(-c2cc3ccc(F)c(-c4nc(C5CCOCC5)n5c4CN(C)C(=O)C5C)c3cn2)s1` (single isomer, unassigned) [Example 37b, 1-(7-Fluoro-3-(2-methylthiazol-5-yl)isoquinolin-8-yl)-5,7-dimethyl-3-(tetrahydro-2H-pyran-4-yl)-7,8-dihydroimidazo[1,5-a]pyrazin-6(5H)-one]: the negative logarithm of the IC50 (pIC50) in assay [1] was 6.19; in assay [2], at most 4.60.

For `Cc1ncc(-c2cc3ccc(C)c(-c4nc(C5CCOCC5)n5c4CN(C)C(=O)C5C)c3cn2)s1` (single isomer, unassigned) [Example 38a], the results for the negative-log IC50 (pIC50) in assay [1] and in assay [2] were 8.10 and 5.74, respectively.

With `Cc1ncc(-c2cc3ccc(C)c(-c4nc(C5CCOCC5)n5c4CN(C)C(=O)C5C)c3cn2)s1` (single isomer, unassigned) [Example 38b], the negative-log IC50 (pIC50) is 6.52 in assay [1] and 5.31 in assay [2].

Consider `CC1C(=O)N(C)Cc2c(-c3cccc4cc(-c5noc(=O)[nH]5)ncc34)nc(C3CC3)n21` (single isomer, unassigned) [Example 44a, 3-(8-(3-Cyclopropyl-5,7-dimethyl-6-oxo-5,6,7,8-tetrahydroimidazo[1,5-a]pyrazin-1-yl)isoquinolin-3-yl)-1,2,4-oxadiazol-5(4H)-one], for which the negative logarithm of the IC50 (pIC50) is 7.17 in assay [1] and under 4.60 in assay [2].

Regarding `CC1C(=O)N(C)Cc2c(-c3cccc4cc(-c5noc(=O)[nH]5)ncc34)nc(C3CC3)n21` (single isomer, unassigned) [Example 44b, 3-(8-(3-Cyclopropyl-5,7-dimethyl-6-oxo-5,6,7,8-tetrahydroimidazo[1,5-a]pyrazin-1-yl)isoquinolin-3-yl)-1,2,4-oxadiazol-5(4H)-one], the figures for the pIC50 in assay [1] and in assay [2] were 9.00 and 5.84, respectively.

In the case of `CC1C(=O)N(C)Cc2c(-c3cccc4nc(-c5noc(=O)[nH]5)c(C(F)F)cc34)nc(C3CC3)n21` (single isomer, unassigned) [Example 45a, 3-(5-(3-Cyclopropyl-5,7-dimethyl-6-oxo-5,6,7,8-tetrahydroimidazo[1,5-a]pyrazin-1-yl)-3-(difluoromethyl)quinolin-2-yl)-1,2,4-oxadiazol-5(4H)-one], the pIC50 in assay [1] was 9.00; in assay [2], 6.95.

As for `CC1C(=O)N(C)Cc2c(-c3cccc4nc(-c5noc(=O)[nH]5)c(C(F)F)cc34)nc(C3CC3)n21` (single isomer, unassigned) [Example 45b, 3-(5-(3-Cyclopropyl-5,7-dimethyl-6-oxo-5,6,7,8-tetrahydroimidazo[1,5-a]pyrazin-1-yl)-3-(difluoromethyl)quinolin-2-yl)-1,2,4-oxadiazol-5(4H)-one], the pIC50 was 7.54 in assay [1] and 5.27 in assay [2].

As for `CC1C(=O)N(C)Cc2c(-c3cccc4nc(-c5cnn(C)c5)c(C#N)cc34)nc(C3CC3)n21` (single isomer, unassigned) [Example 56a, 5-(3-cyclopropyl-5,7-dimethyl-6-oxo-5,6,7,8-tetrahydroimidazo[1,5-a]pyrazin-1-yl)-2-(1-methyl-1H-pyrazol-4-yl)quinoline-3-carbonitrile], the pIC50 in assay [1] is 6.37; in assay [2], 4.60.

With `CC1C(=O)N(C)Cc2c(-c3cccc4nc(-c5cnn(C)c5)c(C#N)cc34)nc(C3CC3)n21` (single isomer, unassigned) [Example 56b, 5-(3-cyclopropyl-5,7-dimethyl-6-oxo-5,6,7,8-tetrahydroimidazo[1,5-a]pyrazin-1-yl)-2-(1-methyl-1H-pyrazol-4-yl)quinoline-3-carbonitrile], the pIC50 in assay [1] is 9.00; in assay [2], 6.88.

As to `CCC1C(=O)N(C)Cc2c(-c3cccc4nc(-c5cnn(C)c5)c(C(F)F)cc34)nc(C3CCOCC3)n21` (single isomer, unassigned) [Example 64a, 1-(3-(difluoromethyl)-2-(1-methyl-1H-pyrazol-4-yl)quinolin-5-yl)-5-ethyl-7-methyl-3-(tetrahydro-2H-pyran-4-yl)-7,8-dihydroimidazo[1,5-a] pyrazin-6(5H)-one], the negative logarithm of the IC50 (pIC50) in assay [1] is 5.61; in assay [2], 4.60.

As for `CCC1C(=O)N(C)Cc2c(-c3cccc4nc(-c5cnn(C)c5)c(C(F)F)cc34)nc(C3CCOCC3)n21` (single isomer, unassigned) [Example 64b, 1-(3-(difluoromethyl)-2-(1-methyl-1H-pyrazol-4-yl)quinolin-5-yl)-5-ethyl-7-methyl-3-(tetrahydro-2H-pyran-4-yl)-7,8-dihydroimidazo[1,5-a] pyrazin-6(5H)-one], the negative-log IC50 (pIC50) in assay [1] is 7.34; in assay [2], 6.14.

`CC1C(=O)N(C)Cc2c(-c3c(F)ccc4cc(-c5ccn(C)n5)ncc34)nc(C3CCOCC3)n21` (single isomer, unassigned) [Example 90a, 1-(7-fluoro-3-(1-methyl-1H-pyrazol-3-yl)isoquinolin-8-yl)-5,7-dimethyl-3-(tetrahydro-2H-pyran-4-yl)-7,8-dihydroimidazo[1,5a] pyrazin-6(5H)-one]: the negative-log IC50 (pIC50) in assay [1] is 6.00; in assay [2] it was 4.60.

In the case of `CC1C(=O)N(C)Cc2c(-c3c(F)ccc4cc(-c5ccn(C)n5)ncc34)nc(C3CCOCC3)n21` (single isomer, unassigned) [Example 90b, 1-(7-fluoro-3-(1-methyl-1H-pyrazol-3-yl)isoquinolin-8-yl)-5,7-dimethyl-3-(tetrahydro-2H-pyran-4-yl)-7,8-dihydroimidazo[1,5a] pyrazin-6(5H)-one], the pIC50 is 8.40 in assay [1] and 6.06 in assay [2].

In the case of `Cc1nn(C)cc1-c1cc2ccc(F)c(-c3nc(C4CCOCC4)n4c3CN(C)C(=O)C4C)c2cn1` (single isomer, unassigned) [Example 91a, 1-(3-(1,3-dimethyl-1H-pyrazol-4-yl)-7-fluoroisoquinolin-8-yl)-5,7-dimethyl-3-(tetrahydro-2H-pyran-4-yl)-7,8-dihydroimidazo[1,5-a] pyrazin-6(5H)-one], the pIC50 in assay [1] was 5.44; in assay [2], 4.60.

Regarding `Cc1nn(C)cc1-c1cc2ccc(F)c(-c3nc(C4CCOCC4)n4c3CN(C)C(=O)C4C)c2cn1` (single isomer, unassigned) [Example 91b, 1-(3-(1,3-dimethyl-1H-pyrazol-4-yl)-7-fluoroisoquinolin-8-yl)-5,7-dimethyl-3-(tetrahydro-2H-pyran-4-yl)-7,8-dihydroimidazo[1,5-a] pyrazin-6(5H)-one], the pIC50 in assay [1] was 8.52; in assay [2], 6.54.

As for `CN1Cc2c(N3CCCc4cc(-c5cnn(C)c5)c(C(F)F)cc43)nc(C3CC3)n2CC1=O` [Example 1, 3-cyclopropyl-1-(7-(difluoromethyl)-6-(1-methyl-1H-pyrazol-4-yl)-3,4-dihydroquinolin-1(2H)-yl)-7-methyl-7,8-dihydroimidazo[1,5-a]pyrazin-6(5H)-one], the negative logarithm of the IC50 (pIC50) in assay [1] is 8.15; in assay [2], 5.06.

The values above are taken from US10899769B2, “Imidazopiperazinone inhibitors of transcription activating proteins” (Board of Regents, The University of Texas System, priority 2018, dated 2021).
